Data as given in US20240228572A1 (i2o Therapeutics, Inc., priority 2020, published 2024).
pEC50: −log10 of the molar value. *1 amine or outer side, *2 acyl side, *3 side chain or, on linkers, in order; H or OH if unused. Where a SMILES comes first, the peptide text is derived from it. Bridges are numbered along the chain shown (N, C = ends). Side-chain parts run from the residue outwards. The star is where a group is joined. C20 diacid = O=C(O)CCCCCCCCCCCCCCCCCCC(=O)*; γGlu = O=C(O)[C@H](CCC(=O)[*:2])N[*:1]; AEEA = NCCOCCOCC(=O)O

Tests used:
[1] = target: T1, human GLP-1 receptor (GLP-1R) (Homo sapiens, UniProt P43220); test: cAMP accumulation assay, CHO-K1 cells stably expressing human GLP-1R; assay type: cell-based; conditions: cAMP accumulation, mean pEC50, Table 10
T1 construct: expressed in transfected cells

[2] = target: T2, human Glucagon receptor (GCGR) (Homo sapiens, UniProt P47871); test: cAMP accumulation assay, CHO-K1 cells expressing human GCGR; assay type: cell-based; conditions: mean pEC50, Table 10
T2 construct: A cDNA fragment encoding the full-length open reading frame of the human GCGR; expressed in transfected cells; host or cells: CHO-K1, pcDNA3.1+, Lipofectamine 2000
T2 sequence (P47871 26-477): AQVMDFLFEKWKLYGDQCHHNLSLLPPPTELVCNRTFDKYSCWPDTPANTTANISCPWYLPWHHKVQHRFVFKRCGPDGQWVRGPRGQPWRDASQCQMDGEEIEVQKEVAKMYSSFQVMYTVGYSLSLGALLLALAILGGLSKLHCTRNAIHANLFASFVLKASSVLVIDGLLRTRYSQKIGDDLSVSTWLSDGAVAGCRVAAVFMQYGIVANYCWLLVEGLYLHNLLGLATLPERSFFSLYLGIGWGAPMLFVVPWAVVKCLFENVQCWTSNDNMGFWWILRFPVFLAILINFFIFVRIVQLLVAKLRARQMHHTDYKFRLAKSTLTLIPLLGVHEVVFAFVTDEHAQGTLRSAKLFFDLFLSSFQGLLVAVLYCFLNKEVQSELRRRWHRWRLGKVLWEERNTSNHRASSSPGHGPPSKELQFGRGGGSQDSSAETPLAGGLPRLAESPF

T1 sequence (P43220 24-463): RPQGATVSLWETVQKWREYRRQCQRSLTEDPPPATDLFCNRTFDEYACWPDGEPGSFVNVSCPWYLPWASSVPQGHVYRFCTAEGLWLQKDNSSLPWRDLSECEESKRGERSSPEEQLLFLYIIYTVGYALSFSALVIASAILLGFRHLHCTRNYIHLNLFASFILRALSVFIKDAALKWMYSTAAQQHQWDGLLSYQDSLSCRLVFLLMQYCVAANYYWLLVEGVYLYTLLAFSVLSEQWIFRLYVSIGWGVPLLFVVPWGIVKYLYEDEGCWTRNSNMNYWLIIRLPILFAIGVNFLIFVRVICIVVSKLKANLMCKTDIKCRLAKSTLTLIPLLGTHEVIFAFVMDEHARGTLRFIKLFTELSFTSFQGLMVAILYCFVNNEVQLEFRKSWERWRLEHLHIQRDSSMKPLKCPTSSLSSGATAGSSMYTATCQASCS

Structure (SMILES): CC(C)C[C@H](NC(=O)[C@H](Cc1ccc(O)cc1)NC(=O)[C@H](CCCCN)NC(=O)[C@H](CO)NC(=O)[C@H](Cc1ccc(O)cc1)NC(=O)[C@H](CC(=O)O)NC(=O)[C@H](CO)NC(=O)[C@@H](NC(=O)[C@H](Cc1ccccc1)NC(=O)[C@@H](NC(=O)CNC(=O)[C@H](Cc1c[nH]cn1)NC(=O)[C@H](CO)NC(=O)[C@@H](N)Cc1ccc(O)cc1)[C@@H](C)O)[C@@H](C)O)C(=O)N[C@@H](CC(=O)O)C(=O)N[C@@H](CCCCNC(=O)CC[C@H](NC(=O)CC[C@H](NC(=O)COCCOCCNC(=O)CCCCCCCCCCCCCCCCCCC(=O)O)C(=O)O)C(=O)O)C(=O)N[C@@H](CCCCN)C(=O)N[C@@H](Cc1ccc(O)cc1)C(=O)N[C@@H](C)C(=O)N[C@H]1CCC(=O)NCCCC[C@@H](C(=O)N[C@@H](Cc2c[nH]c3ccccc23)C(=O)N[C@@H](CC(C)C)C(=O)N[C@@H](CCC(=O)O)C(=O)N[C@@H](CC(=O)O)C(=O)N[C@@H](CCC(=O)O)C(=O)N2CCC[C@H]2C(=O)N[C@@H](CO)C(=O)N[C@@H](CO)C(=O)NCC(=O)N[C@@H](CCCCN)C(=O)N2CCC[C@H]2C(=O)N2CCC[C@H]2C(=O)N2CCC[C@H]2C(=O)N[C@@H](CO)C(=O)O)NC(=O)[C@H](C(C)C)NC(=O)[C@H](Cc2ccccc2)NC(=O)[C@H](CCCCN)NC1=O [Compound A32] (H-YSHGTFTSDYSKYLDK([γGlu-γGlu-AEEA-C20 diacid])KYAEKFVKWLEDEPSSGKPPPS-OH; lactam 20-24; N-terminus assumed)
- pEC50 [1]: < 9.00
- pEC50 [2]: 11.70

Structure (SMILES): CC(C)C[C@H](NC(=O)[C@H](Cc1ccc(O)cc1)NC(=O)[C@H](CCCCN)NC(=O)[C@H](CO)NC(=O)[C@H](Cc1ccc(O)cc1)NC(=O)[C@H](CC(=O)O)NC(=O)[C@H](CO)NC(=O)[C@@H](NC(=O)[C@H](Cc1ccccc1)NC(=O)[C@@H](NC(=O)CNC(=O)[C@H](Cc1c[nH]cn1)NC(=O)[C@H](CO)NC(=O)[C@@H](N)Cc1ccc(O)cc1)[C@@H](C)O)[C@@H](C)O)C(=O)N[C@@H](CC(=O)O)C(=O)N[C@@H](CCCCNC(=O)CC[C@H](NC(=O)CC[C@H](NC(=O)COCCOCCNC(=O)CCCCCCCCCCCCCCCCCCC(=O)O)C(=O)O)C(=O)O)C(=O)N[C@@H](CCCCN)C(=O)N[C@@H](Cc1ccc(O)cc1)C(=O)N[C@@H](C)C(=O)N[C@H]1CCC(=O)NCCCC[C@@H](C(=O)N[C@@H](Cc2c[nH]c3ccccc23)C(=O)N[C@@H](CC(C)C)C(=O)N[C@@H](CCC(=O)O)C(=O)N[C@@H](CC(=O)O)C(=O)N[C@@H](CCC(=O)O)C(=O)N2CCC[C@H]2C(=O)N[C@@H](CO)C(=O)N[C@@H](CO)C(=O)NCC(=O)N[C@@H](CO)C(=O)N2CCC[C@H]2C(=O)N2CCC[C@H]2C(=O)N2CCC[C@H]2C(=O)N[C@@H](CO)C(=O)O)NC(=O)[C@H](C(C)C)NC(=O)[C@H](Cc2ccccc2)NC(=O)[C@H](CCCCN)NC1=O [Compound A33] (H-YSHGTFTSDYSKYLDK([γGlu-γGlu-AEEA-C20 diacid])KYAEKFVKWLEDEPSSGSPPPS-OH; lactam 20-24; N-terminus assumed)
- pEC50 [1]: < 9.00
- pEC50 [2]: 11.90
